Data published in US20130274352A1, “Oral Drug Devices and Drug Formulations” (The Regents of the University of California, priority 2009, published 2013).
Like-named read-outs stand apart in the source and are kept apart here.

Key:
Caco-2 cells [1] = test: Toxicity potential (TP) by MTT assay and synergy (S) of mixtures; format: cell-based, human
Description: As used herein “toxicity potential” or “TP” is used to assess the safety of CPEs and refers to the toxicity of one or more CPEs as determined using a Methyl Thiazole Tetrazolium (MTT) kit (American Type Culture Collection, Rockville, Md.). Caco-2 cells were seeded at 10^5 cells/well onto a 96-well plate. Enhancer solutions (100 μl) were applied for 30 minutes. 10 μl of reagent from an MTT kit (American Type Culture Collection, Rockville, Md.) was applied to each well for 5 hours, after which 100 μl of detergent was applied to each well and allowed to incubate in the dark at room temperature for about 40 hours. Absorbance was read at 570 nm (MTT dye) and 650 nm (detergent).
TP values are reported as the fraction of nonviable cells, as compared to the negative control, DMEM. TP values range from 0 to 1, with 0 indicating no mitrochondrial toxicity, and 1 representing maximum toxicity.
As used herein “synergy” or “S” refers to the difference between the linear average of the toxicity of the individual components and the experimentally measured toxicity of the mixture. Synergy was calculated as follows:
S=[X1·TP1+X2·TP2+X3·TP3]−TPmix Eq. 3
where X1, X2, and X3 are the weight fractions of single enhancers 1, 2, and 3, respectively, and TP1, TP2, TP3, and TPmix are the toxicity potentials of pure CPE 1, pure CPE 2, pure CPE 3, and the mixture of CPEs at the corresponding weight fractions X1, X2, and X3. All TP values in the equation above are obtained at the same total concentration. Since TP values can range from 0 to 1, maximum and minimum Synergy values are 1 and −1, respectively.
Caco-2 cells were seeded at 10^5 cells/well onto a 96-well plate. Enhancer solutions (100 μl) were applied for 30 minutes. 10 μl of reagent from an MTT kit (American Type Culture Collection, Rockville, Md.) was applied to each well for 5 hours, after which 100 μl of detergent was applied to each well and allowed to incubate in the dark at room temperature for about 40 hours. Absorbance was read at 570 nm (MTT dye) and 650 nm (detergent). Toxicity potential (TP) values are reported as the fraction of nonviable cells, as compared to the negative control, DMEM. TP values range from 0 to 1, with 0 indicating no mitrochondrial toxicity, and 1 representing maximum toxicity.

Caco-2 monolayers [2] = tested on: Caco-2 monolayers
Description: (§4) Upper filter supports containing viable Caco-2 monolayers were transferred into a 24-well BD Falcon plate and 1 ml of media was dispensed into each basolateral compartment. Solutions containing the CPE (“enhancer solutions”) were applied to the apical compartment and TEER readings were taken at 10 minutes. TEER recovery was assessed by removing enhancer solutions after 30 minutes, applying fresh media, and measuring TEER values at 24 hours.

Caco-2 monolayers [3] = test: Transwell permeability of sulforhodamine-B or FITC-insulin with PPS; format: cell-based, human
From the text: The withdrawn sample was immediately replaced with an equivalent amount of the experimental media.

[4] = Plasma sCT concentration after intestinal injection of sCT with or without PPS; format: in vivo, rat; conditions: 1% w/v PPS with sCT 3 mg/kg, SD rats
Description: Adult male Sprague-Dawley (SD) rats of 275-300 g, fasted for 7 hours were used for all studies. A midline abdominal incision of 2.5-3.0 cm was made in animals anesthetized by 1.5-3.0% isoflurane to expose the gastrointestinal system. […] Incision was then closed with sterile vicryl […] (muscular), and Vetbond® tissue glue (skin). Blood samples were collected up to 5 hours by tail vein bleeding (heparinized tubes for plasma Calcium, and EDTA tubes for plasma sCT determination), and plasma was separated for analysis of both pharmacodynamic and pharmacokinetic response. Pharmacodynamic response was measured by quantifying plasma calcium levels using a colorimetric calcium assay kit (Sciencell Laboratories, Carlsbad, Calif.); and pharmacokinetic efficacy was tested by quantifying plasma concentrations of salmon calcitonin (sCT) using an extraction-free ELISA kit (Bachem Americas Inc., Torrance, Calif.) following manufacturer's protocols.

[5] = tested on: Caco-2 cell line (HTB-37)
Description: 10 μL of MTT solution (5 mg/mL) was added to each well for 4 h (37° C.), after which 100 μL of 100% DMSO was applied and the plates were incubated for 1 hr with moderate shaking Absorbance was measured at 570 nm using a Tecan Saffire™ fluorescent microplate reader (Tecan Group Ltd, Mannedorf, Switzerland).

Caco-2 monolayer [6] = test: Confocal laser microscopy of FITC-insulin permeation with PPS; format: cell-based, human; conditions: 5 hours
From the text: Following fixation, cells were gently washed with HBSS, membranes gently removed from the plastic insert, and were mounted on a microscopy slide with DAPI containing cell mounting media (Vectashield® Hardset®, Vector Laboratories, Burlingame, Calif.). All samples were imaged on a confocal microscope (Leica and Olympus Fluoview 500).

Caco-2 cells [7] = test: Calcein entry into epithelial cells, fluorescence microscopy; format: cell-based, human; conditions: 0.01% PPS, 0.01% (w/v) calcein
Description: A solution containing a permeation enhancer and 0.01% (w/v) calcein dissolved in phosphate buffered saline was applied to Caco-2 cells. After 30 minutes, solutions were removed and replaced with a solution containing only calcein. After 1 hour, samples were washed 3× with phosphate buffered saline and viewed with a Zeiss fluorescence microscope.

intestinal epithelium = test: Intestinal tissue histology after PPS; format: in vivo, rat; conditions: 0.1% and 1% w/v PPS, 0.5 ml, 5 hrs, SD rats
Description: Histological studies were performed to evaluate the possibility of damage caused by PPS in the intestine. […] The sections were stained using hematoxylin-eosin staining and imaged at 50× magnification using an inverted light microscope to determine signs of pathological changes.

Caco-2 monolayers [8] = test: TEER over time with PPS (Example 5); format: cell-based, human; conditions: for decrease in TEER (% of initial value): 5 hours
Description: Caco-2 cell line HTB-37 (ATCC, Rockville, Md.), derived from human colon cells, was used for all experiments. Cells were maintained in DMEM supplemented with 25 IU/ml of penicillin, 25 mg/L of streptomycin, 250 μg/L of amphotericin B and 100 ml/L of fetal bovine serum. Monolayers were grown on BD Biocoat™ HTS collagen filter supports (BD Biosciences, Bedford, Mass.) according to supplier instructions. At the end of the growth period, the integrity of the cell monolayer was confirmed by transepithelial electrical resistance (TEER) measurements (Millicell-ERS voltohmmeter, Millipore, Billerica, Mass.). Only monolayers with TEER values in the range of 150-200 Ω-cm^2 were used for further experimentation.

Caco-2 monolayers [9] = test: TEER reversibility after PPS exposure; format: cell-based, human; conditions: 0.03% w/v PPS for 10 minutes or 1 hour; within 24 hours of removal
Caco-2 monolayers [10] = test: Permeability of tritium-labeled mannitol or 70 kDa dextran across Caco-2 monolayers
Description: (§1) Solutions containing CPEs and 1 μCi/ml of tritium-labeled mannitol or 70 kDa dextran (American Radiolabeled Chemicals, St. Louis, Mo.) were applied to the apical side of Caco-2 monolayers. Samples were taken from the basolateral compartment every 10 minutes for 1 hour and the radiolabeled contents were analyzed with a scintillation counter (Packard Tri-Carb 2100 TR, Meriden, Conn.).
(§2) where ΔM is the amount of solute transported across the barrier in the time Δt, CM is the concentration of solute in the apical compartment, and Axs is the cross-sectional area of epithelium in contact with the apical solution.
(§3) Positive control experiments were performed on BD Biocoat™ filter supports in the absence of cells.

Caco-2 cells [11] = conditions: 0.1% enhancer
Description: Enhancer solutions (100 μl) were applied for 30 minutes. 25 μl of the solution was then transferred to a fresh 96-well plate and mixed with 25 μl of LDH reagent from the CytoTox 96® assay (Promega, Madison, Wis.) and allowed to react for 30 minutes in the dark at room temperature. Stop solution (25 μl) was then added to each well, and the absorbance was read at 490 nm. LDH potential (LP) values are reported as the fraction of maximal LDH release, as determined by the positive control lysis solution provided with the assay kit (˜1% Triton-X100).
Equation 5 was used to assess the relative contribution of transcellular and paracellular pathways to permeability of the intestinal epithelium. […] According to Equation 4, the line EP=LP corresponds to enhancers that act predominantly by the transcellular route (paracellular contributions are negligible). Enhancers lying on the vertical EP axis primarily utilize the paracellular pathway, since there is no relationship between EP and LP when transcellular contributions are negligible. The relative contribution of the paracellular pathway is higher for enhancers falling closer to the EP axis than to the EP=LP line.

Caco-2 monolayer [12] = conditions: 0.1% enhancer (total), 10 min
Description: The Examples described herein used 1% Triton X-100 as the positive control.
All TEER values were normalized by their initial values.
where TEERCPE and TEER+ are the resistance values (% of initial) of the enhancer solution and positive control solution, respectively, after 10 minutes of exposure. EP lies on a scale of 0 to 1, with 1 representing maximum enhancement as compared to the positive control.
Caco-2 cell line HTB-37 (ATCC, Rockville, Md.), derived from human colon cells, was used for all experiments. Cells were maintained in DMEM supplemented with 25 IU/ml of penicillin, 25 mg/L of streptomycin, 250 ug/L of amphotericin B and 100 ml/L of fetal bovine serum. Monolayers were grown on BD Biocoat™ collagen filter supports (Discovery Labware, Bedford, Mass.) according to supplier instructions. […]
as §4

in vitro = conditions: human, Caco-2
Description: as §1, §2, §3

B. thailendensis = test: Minimum inhibitory concentration, broth microdilution; format: cell-based; conditions: 18 hours, 37° C.
Description: Minimum inhibitory concentration against B. thailendensis was determined. Broth microdilution method was followed for MIC determination. Briefly, fresh cultures were grown on the day of experiment using the protocol described below.
Low sodium Leuria-Bertani (LSLB) broth (10 g tryptone 1-1, 5 g yeast extract 1-1, 5 g NaCl 1-1) made in ultrapure water and sterilized via autoclaving (121° C., 15 min) was used for culturing B. thailendensis. Culturing protocol was same as given above for E. coli.
The cultures were adjusted to 5.5×10^5 cfu/ml and used within 30 minutes to minimize change in bacterial counts. Cultures were dispensed in 96-well cell culture polypropylene plates (Corning, Lowell, Mass.) at 90 μl/well. Serial dilutions of test formulations were made at 10× concentration. Inoculums in each well were incubated with 10 μl of test formulation dilutions for 18 hours at 37° C. under humidified conditions. At the end of incubation period, the plates were visibly inspected for bacterial growth. Colonies were counted for selected wells by plating culture dilutions on LSLB plates.

[13] = tested on: Primary epidermal keratinocyte cultures (HEKa); test: Keratinocyte cytotoxicity (LC50), MTT; format: cell-based, human; conditions: HEKa cells
Description: Primary epidermal keratinocyte cultures from an adult human source (HEKa) were purchased from Invitrogen Corp (Carlsbad, Calif.) and used for all cytotoxicity experiments. Cells were maintained in a humidified incubator (37° C., 5% CO2), in EpiLife medium with 60 μM calcium and phenol red, supplemented with 10 ml/l human keratinocyte growth supplement, 5 IU/ml penicillin and 5 μg/ml streptomycin. All components of growth media were purchased from Invitrogen Corp (Carlsbad, Calif.). Cells were grown to 70-80% confluence in cell culture flasks (Corning, Lowell, Mass.) as per suppliers' protocols.
At the end of the growth period, keratinocyte cells were seeded at a density of 10^4 cells/well in 96-well tissue culture treated polystyrene plates (Corning, Lowell, Mass.) and incubated overnight to allow cell attachment. Cells were supplied with fresh EpiLife medium (90 μl/well) at the start of experiment, followed by application of test formulations (10 μl/well). The final concentration of test formulations in each well was 0.0001% w/v. This concentration limit was determined based on the LC50 values of component chemicals for HEKa cell line, which were determined in a separate experiment. The cells were incubated with the test formulations for 1 hour. […] The plates were incubated for 16 hours in a humidified environment and absorbance was read at 570 nm.

## CCCCCCCCCC[N+](C)(C)C.[Br-] [DTAB, Decyltrimethyl ammonium bromide]
Caco-2 cells [1]; 0.1% enhancer (total), 30 min
  TP: 0.56

## CCCCCCCCCCCCCCCC[N+](C)(C)CCCS(=O)(=O)[O-] [PPS, Palmityldimethyl ammonio propane sulfonate]
Caco-2 monolayers [2]
  cell monolayer structure by TEER recovery: did not damage cell monolayer structure
Caco-2 monolayers [3]; 0.01% PPS
  increase in sulforhodamine transport over negative control: 1.7 fold
Caco-2 monolayers [3]; 0.03% PPS
  increase in sulforhodamine transport over negative control: 2.6 fold
Caco-2 monolayers [3]; 0.03% w/v PPS
  enhancement of FITC-insulin transport: 2.3 fold
Caco-2 monolayers [3]; lower concentrations of PPS (0.01% w/v)
  enhancement of FITC-insulin transport: did not increase significantly
[4]
  enhancement of systemic sCT availability based on peak plasma concentrations: 45-50 fold
[5]
  cell viability: ~88%
[5]; Caco-2
  toxicity on Caco-2 cells: no detectable toxicity
Caco-2 monolayer [6]; 0.01% PPS
  increase of FITC-insulin transport across the monolayer (fluorescence intensity): 1.3 fold
Caco-2 monolayer [6]; 0.03% w/v PPS
  increase of FITC-insulin transport across the monolayer (fluorescence intensity): 3.1 fold
Caco-2 cells [7]
  epithelial cells with calcein transport into the cell: more than 75%
Intestinal epithelium
  pathological damage to the intestinal epithelium: no evidences of necrosis or specific inflammation
Caco-2 cells [1]; 0.01% (w/v) enhancer, 30 min
  TP: 0
Caco-2 monolayers [8]; 0.01% w/v PPS
  decrease in TEER (% of initial value): 50%
Caco-2 monolayers [8]; 0.03% w/v PPS
  decrease in TEER (% of initial value): ~70%
Caco-2 monolayers [8]; higher concentration (0.03% w/v PPS), 15 minutes
  drop in TEER: −50%
Caco-2 monolayers [9]
  TEER values returned (% of initial): 90-100%

## c1ccc(N2CCNCC2)cc1 [PPZ, Phenyl piperazine]
Caco-2 monolayers [2]; after removal of 0.1% PPZ, within 24 hours
  TEER recovery, % of original value: 100%
Caco-2 monolayers [10]; enhancer at 0.1%, 70 kDa dextran
  increase of 70 kDa dextran permeability: > 11 fold
Caco-2 monolayers [10]; enhancer at 0.1%, mannitol
  increase of mannitol permeability: more than 14 fold
Caco-2 cells [1]; 0.1% enhancer (total), 30 min
  TP: 0.09
Caco-2 cells [11]
  K: 0.86
Caco-2 monolayer [12]
  EP: 0.95

## CCN(CC)c1ccc2c(-c3ccc(S(=O)(=O)O)cc3S(=O)(=O)[O-])c3ccc(=[N+](CC)CC)cc-3oc2c1 [Sulforhodamine-B]
Caco-2 monolayers [3]; PPS 0.01%, 0.15 mg
  % Transport: 3.3 ± 0.4%
  Apparent Permeability (Papp): 6.0 ± 0.6 10^−6 cm/s
Caco-2 monolayers [3]; PPS 0.03%, 0.15 mg
  % Transport: 5.1 ± 0.9%
  Apparent Permeability (Papp): 9.1 ± 1.6 10^−6 cm/s
Caco-2 monolayers [3]; no PPS, 0.15 mg
  % Transport: 1.9 ± 1.3%
  Apparent Permeability (Papp): 3.5 ± 2.3 10^−6 cm/s

## OC[C@@H](O)[C@@H](O)[C@H](O)[C@H](O)CO [mannitol, reference compound]
In vitro
  Papp A→B at 1 h, 1 μCi/ml: 0.43 ×10⁻⁶ cm/s

## FITC-insulin: tracer molecule, FITC-insulin (˜6,000 da)
Caco-2 monolayers [3]; Caco-2
  Apparent Permeability (Papp): 15.6 ± 0.7 10^−6 cm/s

## Sodium laureth sulfate [SLA]
Caco-2 cells [1]
  TP: 0.88

## benzalkoniium chloride [BZK]
B. thailendensis
  MIC: 0.00048 % w/v
[13]
  LC50: 0.00078 % w/v

## dextran [reference compound]
Caco-2 monolayers [10]; no CPE, Caco-2 monolayers
  average permeability in the absence of CPEs: 4.9×10^−7±2.3×10^−7

## sorbitan monolaurate [S20]
B. thailendensis
  MIC: low antibacterial potency
[13]
  LC50: negligible toxicity
